Reference: patent publication US11865158B2, “Process and composition matter of nanoparticle formulation for systemic treatment of sepsis” (PURDUE RESEARCH FOUNDATION, priority 2019, dated 2024)

Tests used:
[1] = test system: LPS-induced NF-kB/AP-1 activation in THP1-XBlue-MD2-CD14 cells; assay: In vitro anti-LPS activity, SEAP reporter assay, LPS pretreated and supernatant added to cells; assay type: cell-based, human; settings: 10 ng/mL LPS, equivalent to PMB 9.5-18.9 μg/mL
Procedure: To investigate if D-TZP can neutralize LPS, a reporter cell line responding to LPS was incubated with LPS and free PMB or D-TZP's (with different amounts of PMB). THP1-XBlue-MD2-CD14, derived from the human monocytic THP-1 cell line, overexpresses MD2 and CD14 to amplify the response to TLR4 agonist LPS. Color change of the Quanti-Blue reagent (NF-kB/AP-1-inducible secreted embryonic alkaline phosphatase (SEAP) reporter protein) reflects NF-kB/AP-1 activation due to LPS. LPS-induced SEAP production was measured at 620 nm. The reporter cells with 10 ng/mL of LPS expressed a high level of SEAP as compared to non-challenged cells. […] A supernatant was obtained from each mixture to separate unbound LPS and added to THP1-XBlue-MD2-CD14 cells.
In vitro anti-LPS activity. Five microliters of LPS ([…]) was mixed with 15 μL of free PMB, D-TZP, or TZP at different concentrations in a flat-bottom 96-well plate. THP1-XBlue-MD2-CD14 cell suspension (10^5 cells in 180 μL) was then added to the mixtures. After 24 h incubation, cells were centrifugated at 233 rcf for 5 min. Twenty microliters of the cell medium was mixed with the Quanti-Blue reagent. After 2 h incubation, the color was measured at 620 nm by a Spectra Max M3 microplate reader (Molecular Devices, Sunnyvale, CA). […] The medium was analyzed in the same manner as above.

THP-1 monocytes = assay: Cytotoxicity by propidium iodide staining and flow cytometry; assay type: cell-based, human; settings: equivalent to 50-150 μg/mL PMB, 24 h
Procedure: (§1) As a cationic polypeptide, PMB is known to be effective in neutralizing LPS as early as in 1967, but its systemic application is hampered by dose-limiting nephro- and neurotoxicity. PMB manifests the toxicity via the increased membrane permeability, resulting in increased influx of ions and water and subsequent cell swelling and lysis. To test if the toxicity can be reduced by supplying PMB as a NP-bound form, THP-1 monocytes or J774a.1 macrophages were incubated with D-TZP or free PMB at a concentration equivalent to 50-150 μg/mL PMB for 24 h, stained with propidium iodide (PI), which penetrates damaged cell membrane but not intact membrane, and analyzed with flow cytometry. […] Substantial reduction of membrane damage is attributable to the surface-bound ZWC, which provides a negatively charged cloud beyond the remit of PMB due to the large size, attenuating direct exposure of PMB to cell membrane.
(§2) Cytotoxicity of PMB and D-TZP. Cytotoxic concentration range of free PMB was first determined with THP1-XBlue-MD2-CD14 cells by the MTT assay. […] The PI fluorescence of 10,000 cells was measured with the BD Accuri C6 flow cytometer (BD Biosciences, San Jose, CA) via the FL-2 detector. Nanoparticles and cell debris were excluded by gating, but all cell population (dead or alive) was analyzed. […]

J774a.1 macrophages = assay: as above; assay type: cell-based; settings: equivalent to 50-150 μg/mL PMB, 24 h
Procedure: as §1, §2

[2] = test system: cecal ligation and puncture (CLP) model; assay: Therapeutic efficacy in cecal ligation and puncture (CLP) polymicrobial sepsis model; assay type: in vivo, C57BL/6 mice; settings: IV 2 h post-CLP and every 2 days, max three times; D-TZP and TZP 10 mg/kg PMB eq., free PMB 5 mg/kg
Procedure: The efficacy of systemic […] was further tested in cecal ligation and puncture (CLP) model, which induces systemic inflammation by polymicrobial infection and thus simulates a clinically relevant septic state (Toscano, M. G. et al., JoVE, e2860 (2011)). D-TZP and TZP was administered IV at 10 mg/kg PMB eq. 2 h post-CLP and every subsequent 2 days a maximum total of three times. Free PMB was given at 5 mg/kg IV in the same schedule as D-TZP.
Therapeutic efficacy in polymicrobial sepsis model by cecal ligation and puncture (CLP). The efficacy of D-TZP and TZP was evaluated in a cecal ligation and puncture (CLP) model, the gold standard of polymicrobial sepsis model. The abdomen of 6 week-old C57BL/6 male was cleaned with a hair-removal cream (Nair, Church & Dwight Co., Inc). The mice were anesthetized by 2.5% isofluorane. Betadine 0.5% solution and 70% isopropyl alcohol swap were alternately applied three times to disinfect the shaved abdomen. Midline laparotomy was performed under an aseptic condition to exteriorize the cecum. The cecum was ligated below the ileocecal valve with a 5-0 suture (perma-hand silk, Ethicon) and perforated twice with 20 G needle on the same side of the cecum to release feces into the peritoneal cavity. After perforation, the intestines were returned to abdominal cavity. […] Animals were monitored as described in the endotoxemia model.

For polymyxin B [PMB], the “SEAP production, LPS pretreated for 1 h, supernatant added to cells” value [1] was “significant reduction in SEAP production”, the “PI fluorescence (membrane damage)” value (THP-1 monocytes) was “dose-dependent PI fluorescence signal” and the “PI fluorescence (membrane damage)” value (J774a.1 macrophages) was “dose-dependent PI fluorescence signal”. For the same substance, the survival [2] was 33%.
